Assay results from ChEMBL document CHEMBL3769361, “Novel squaramides with in vitro liver stage antiplasmodial activity” (Bioorg Med Chem, 2016).

Assays:
Plasmodium berghei [1] = assay: Potency index, ratio of bulaquine IC50 to compound IC50 for liver stage Plasmodium berghei infected in Huh7 cells; format: functional, Huh-7
Plasmodium berghei [2] = assay: Antiplasmodial activity against liver stage Plasmodium berghei infected in Huh7 cells assessed as inhibition of parasite infection incubated for 1 hr prior to infection measured at 24 hrs by luciferase reporter gene assay; format: functional, organism-based; conditions: Huh-7, Liver
[3] = Cytotoxicity against HEK293T cells assessed as cell viability after 48 hrs by MTT assay; format: cell-based; conditions: Homo sapiens, HEK-293T
[4] = Cytotoxicity against human HuH7 cells infected with Plasmodium berghei assessed as cell proliferation at 1 to 10 uM by Alamar blue assay; format: cell-based; conditions: huh-7, 10 µM
Plasmodium falciparum [5] = assay: Antiplasmodial activity against chloroquine-resistant Plasmodium falciparum W2 infected in human erythrocytes after 48 hrs by flow cytometry; format: functional, organism-based; conditions: W2, 48 h
Plasmodium falciparum [6] = assay: Antiplasmodial activity against chloroquine-resistant Plasmodium falciparum W2 infected in human erythrocytes after 24 hrs by [3H]-hypoxanthine incorporation assay; format: functional, organism-based

With `CCCCOc1c(NCCCC(C)Nc2cc(OC)cc3cccnc23)c(=O)c1=O` (configuration not stated) as the compound, how does the “Ratio IC50” value (Plasmodium berghei [1]) read?
The value was 4.3.

And the IC50 (Plasmodium berghei [2])?
Its IC50 is 1.3 µM.

What does the source list for `COc1cc(NC(C)CCCNc2c(NCCCC(C)Nc3cc(OC)cc4cccnc34)c(=O)c2=O)c2ncccc2c1` (configuration not stated)?
Ratio IC50 (Plasmodium berghei [1]): 4.3; IC50 (Plasmodium berghei [2]): 1.3 µM

Which IC50 [3] does the source give for `CCCCOc1c(NCCNc2cc(OC)cc3cccnc23)c(=O)c1=O` here?
Its IC50 is greater than 100 µM.

What about the Activity [4] of the same compound?
The Activity was “Non-toxic”.

And the IC50 (Plasmodium falciparum [5])?
Its IC50 is 8.5 µM.

For `CCCCOc1c(Nc2cc(OC)cc3cccnc23)c(=O)c1=O`, which Activity [4] is on record?
The Activity was “Non-toxic”.

What about the IC50 (Plasmodium falciparum [5]) of the same compound?
The IC50 was greater than 10 µM.

For `COc1cc(NC(C)CCCN/C(C)=C2/CCOC2=O)c2ncccc2c1` (configuration not stated), which IC50 (Plasmodium falciparum [6]) is on record?
The IC50 was 1.6 µM.

What about the IC50 (Plasmodium berghei [2]) of the same compound?
Its IC50 is 10 µM.

With `CCCCNc1c(NCCCC(C)Nc2cc(OC)cc3cccnc23)c(=O)c1=O` (configuration not stated) as the compound, how does the Activity [4] read?
Its Activity is “Non-toxic”.

What about the IC50 (Plasmodium falciparum [5]) of the same compound?
Its IC50 is greater than 10 µM.

Which IC50 [3] does the source give for `CCCCOc1c(NCCC(C)Nc2cc(OC)cc3cccnc23)c(=O)c1=O` (configuration not stated) here?
The IC50 was greater than 100 µM.

What about the Activity [4] of the same compound?
The Activity was “Non-toxic”.

What about the IC50 (Plasmodium falciparum [5]) of the same compound?
Its IC50 is 5.1 µM.

Which results are given for `CCCCOc1c(NCCCCCNc2cc(OC)cc3cccnc23)c(=O)c1=O`?
IC50 [3]: > 100 µM; Activity [4]: Non-toxic; Ratio IC50 (Plasmodium berghei [1]): 4.3; IC50 (Plasmodium berghei [2]): 2.2 µM; IC50 (Plasmodium falciparum [5]): > 10 µM

With `CCCCOc1c(NCCCNc2cc(OC)cc3cccnc23)c(=O)c1=O` as the compound, how does the IC50 [3] read?
Its IC50 is greater than 100 µM.

What about the Activity [4] of the same compound?
Its Activity is “Non-toxic”.

What about the “Ratio IC50” value (Plasmodium berghei [1]) of the same compound?
Its value is 4.3.

And the IC50 (Plasmodium berghei [2])?
Its IC50 is 1.8 µM.

And the IC50 (Plasmodium falciparum [5])?
Its IC50 is 5.1 µM.

Which results are given for `CCOc1c(NCCCC(C)Nc2cc(OC)cc3cccnc23)c(=O)c1=O` (configuration not stated)?
IC50 [3]: > 100 µM; Activity [4]: Non-toxic; IC50 (Plasmodium falciparum [5]): 7.3 µM

With `COc1cc(NC(C)CCCNc2c(OC)c(=O)c2=O)c2ncccc2c1` (configuration not stated) as the compound, how does the Activity [4] read?
Its Activity is “Non-toxic”.

What about the IC50 (Plasmodium falciparum [5]) of the same compound?
Its IC50 is greater than 10 µM.

Which IC50 (Plasmodium berghei [2]) does the source give for `COc1cc(NC(C)CCCN)c2ncccc2c1` (configuration not stated) [PRIMAQUINE] here?
Its IC50 is 9.5 µM.
